Test: Antagonist activity at CCR3 receptor in cynomolgus monkey eosinophil assessed as as inhibition of chemotaxis
For C[C@@H](NC(=O)Nc1cccc(-c2nnnn2C)c1)[C@@H](O)CN1CCC[C@@H](Cc2ccc(F)cc2)C1 [1-{(1R,2S)-3-[(S)-3-(4-Fluoro-benzyl)-piperidin-1-yl]-2-hydroxy-1-methyl-propyl}-3-[3-(1-methyl-1H-tetrazol-5-yl)-phenyl]-urea], the IC50 was 0.15 nM.

Test: Antagonist activity at CCR3 receptor in mouse eosinophil assessed as as inhibition of chemotaxis
Compound C[C@@H](NC(=O)Nc1cccc(-c2nnnn2C)c1)[C@@H](O)CN1CCC[C@@H](Cc2ccc(F)cc2)C1 [1-{(1R,2S)-3-[(S)-3-(4-Fluoro-benzyl)-piperidin-1-yl]-2-hydroxy-1-methyl-propyl}-3-[3-(1-methyl-1H-tetrazol-5-yl)-phenyl]-urea] has an IC50 of 870 nM.

Test: Antagonist activity at human CCR3 receptor in human eosinophil assessed as inhibition of eotaxin-induced chemotaxis
Compound C[C@H](CC(=O)N1CCC[C@@H](Cc2ccc(F)cc2)C1)NC(=O)Nc1cccc(-c2nnnn2C)c1 has an IC50 of 0.2 nM. In the case of C[C@H](CCN1CCC[C@@H](Cc2ccc(F)cc2)C1)NC(=O)Nc1cc(-n2cccn2)cc(-n2cccn2)c1, the IC50 is reported as 0.1 nM. With CC(=O)c1cc(NC(=O)N[C@@H](C)CCN2CCC[C@@H](Cc3ccc(F)cc3)C2)cc(C(C)=O)c1 the IC50 was 60 nM. In the case of CCc1cc(NC(=O)N[C@H](C)CCN2CCC[C@@H](Cc3ccc(F)cc3)C2)cc(-c2nnnn2C)c1, the IC50 is reported as 0.02 nM. C[C@H](CCN1CCC[C@@H](Cc2ccc(F)cc2)C1)NC(=O)Nc1cccc(-c2nnnn2C)c1 showed an IC50 of 1.1 nM. O=C(NCCCN1CCC[C@@H](Cc2ccc(F)cc2)C1)Nc1cc(-n2cccn2)cc(-n2cccn2)c1 showed an IC50 of 5 nM. For CC(C)c1cc(NC(=O)NCCCN2CCC[C@@H](Cc3ccc(F)cc3)C2)cc(-c2nnnn2C)c1, the IC50 was 0.3 nM. For CC(C)c1cc(NC(=O)N[C@H](C)CCN2CCC[C@@H](Cc3ccc(F)cc3)C2)cc(-c2nnnn2C)c1, the IC50 was 0.021 nM. C[C@@H](CCN1CCC[C@@H](Cc2ccc(F)cc2)C1)NC(=O)Nc1cccc(-c2nnnn2C)c1 gave an IC50 of over 1 nM. In the case of CCC[C@H](CCN1CCC[C@@H](Cc2ccc(F)cc2)C1)NC(=O)Nc1cc(-c2nnnn2C)cc(C(C)(C)O)c1, the IC50 is reported as 0.011 nM. In the case of CC[C@H](CCN1CCC[C@@H](Cc2ccc(F)cc2)C1)NC(=O)Nc1cc(-c2nnnn2C)cc(C(C)(C)O)c1, the IC50 is reported as 0.1 nM. With CC(=O)c1cc(NC(=O)N[C@H](C)CCN2CCC[C@@H](Cc3ccc(F)cc3)C2)cc(-c2nnnn2C)c1 the IC50 was 0.02 nM. For CC(=O)c1cc(NC(=O)N[C@H](C)CCN2CCC[C@@H](Cc3ccc(F)cc3)C2)cc(C(C)=O)c1, the IC50 was 0.2 nM. CC(=O)c1cccc(NC(=O)NCCCN2CCC[C@@H](Cc3ccc(F)cc3)C2)c1 [1-(3-Acetyl-phenyl)-3-{3-[(S)-3-(4-fluoro-benzyl)-piperidin-1-yl]-propyl}-urea] gave an IC50 of 25 nM. In the case of Cn1nnnc1-c1cccc(NC(=O)NCCCN2CCC[C@@H](Cc3ccc(F)cc3)C2)c1 [1-{3-[(S)-3-(4-Fluoro-benzyl)-piperidin-1-yl]-propyl}-3-[3-(1-methyl-1H-tetrazol-5-yl)-phenyl]-urea], the IC50 is reported as 3.2 nM. Work on Cc1cc(NC(=O)NCCCN2CCC[C@@H](Cc3ccc(F)cc3)C2)cc(-c2nnnn2C)c1 [1-{3-[(S)-3-(4-Fluoro-benzyl)-piperidin-1-yl]-propyl}-3-[3-methyl-5-(1-methyl-1H-tetrazol-5-yl)-phenyl]-urea] yielded an IC50 of 1 nM. C[C@@H](NC(=O)Nc1cccc(-c2nnnn2C)c1)[C@@H](O)CN1CCC[C@@H](Cc2ccc(F)cc2)C1 [1-{(1R,2S)-3-[(S)-3-(4-Fluoro-benzyl)-piperidin-1-yl]-2-hydroxy-1-methyl-propyl}-3-[3-(1-methyl-1H-tetrazol-5-yl)-phenyl]-urea] gave an IC50 of 0.04 nM. Work on CC(=O)c1cc(NC(=O)NCCCN2CCC[C@@H](Cc3ccc(F)cc3)C2)cc(C(C)=O)c1 [(S)-1-(3-(3-(4-fluorobenzyl)piperidin-1-yl)propyl)-3-(3,5-diacetylphenyl)urea] yielded an IC50 of 3 nM.

Reference: BindingDB's records for doi:10.1016/j.bmcl.2007.11.067 (Bristol-Myers Squibb, 2008)
